Assay results taken from patent publication US8383581B2, “Short-chain peptides as parathyroid hormone (PTH) receptor agonist” (Cadila Healthcare Limited, priority 2009, dated 2013).
Where a SMILES comes first, the peptide text is derived from it. [ ]: non-standard residue; d: D form. ξ: configuration not given here. Arg(NO2) = N=C(NCCC[C@H](N)C(=O)O)N[N+](=O)[O-]; ξαMePhe(2,6-F2) = CC(N)(Cc1c(F)cccc1F)C(=O)O; ξαMePhe(2-F) = CC(N)(Cc1ccccc1F)C(=O)O; hCit = NC(=O)NCCCC[C@H](N)C(=O)O; Cit = NC(=O)NCCC[C@H](N)C(=O)O; Nle = CCCC[C@H](N)C(=O)O; Ac5c = NC1(C(=O)O)CCCC1; Aib = CC(C)(N)C(=O)O

Tests used:
Format in all cases: in vitro ADME
[1] = Stability of peptides in human plasma; details: human, plasma; for metabolised at 24 h, 2 μM: pH 7.8
Procedure, shortened: (§1)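 Peptides at 2 μM final incubated 0–24 h at 37 °C (50 mM triethanolamine-HCl, pH 7.8) in each matrix, matrix level set to degrade ~50% PTH(1-34) in 1 h; TFA-quenched, C18 HPLC at 206 nm with ESI-MS peak identification; percent degradation from peak areas at each time point.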

[2] = Stability of peptides in simulated gastric fluid (pH 1.5; HCl, NaCl and Pepsin); details: pH 1.5; for % degradation of peptides in 24 h when incubated with simulated gastric fluid: 2 μM; for half-life (t1/2) in simulated gastric fluid / half-life: simulated gi fluid
[3] = Stability of peptides in simulated intestinal fluid (pH 7.5); details: pH 7.5; for half-life (t1/2) in simulated intestinal fluid / half-life: simulated gi fluid; for % degradation of peptides in 24 h when incubated with simulated intestinal fluid: 2 μM
Procedure, shortened: as §1

[4] = Stability of peptides in human liver microsomes; details: human, microsomes; for % degradation of peptides in 24 h when incubated with liver microsomes: 2 μM, pH 7.8
Procedure, shortened: as §1

Structure (SMILES) | half-life [1] [h] | metabolised at 24 h, 2 μM [1] [%] | % degradation of peptides in 24 h when incubated with simulated gastric fluid [2] [%] | half-life (t1/2) in simulated gastric fluid [2] | half-life (t1/2) in simulated intestinal fluid [3] | % degradation of peptides in 24 h when incubated with simulated intestinal fluid [3] [%] | half-life [4] [h] | % degradation of peptides in 24 h when incubated with liver microsomes [4] [%] | half-life [2] [h] | half-life [3] [h] | half-life (t1/2) in liver microsomes [4]
CCCC[C@H](NC(=O)C(C)(Cc1ccccc1F)NC(=O)[C@H](CCC(N)=O)NC(=O)[C@@H](NC(=O)[C@H](CCC(=O)O)NC(=O)C(C)(C)NC(=O)[C@@H](NC(=O)C1(N)CCCC1)C(C)C)[C@@H](C)CC)C(=O)N[C@@H](Cc1c[nH]cn1)C(=O)N[C@@H](CCC(N)=O)C(=O)N[C@@H](CCCCNC(N)=O)C(=O)N[C@@H](C)C(=O)N[C@@H](CCCNC(N)=O)C(=O)NC(C)(Cc1ccccc1F)C(N)=O (stereo partly shown) [Seq. ID. 411] (H-[Ac5c]V[Aib]EIQ[ξαMePhe(2-F)][Nle]HQ[hCit]A[Cit][ξαMePhe(2-F)]-NH2) | 8 | 77 | 14 | (8) h | (6) h | 45 | 1 | 81 | – | – | –
CCCC[C@H](NC(=O)C(C)(Cc1ccccc1F)NC(=O)[C@H](CCC(N)=O)NC(=O)[C@@H](NC(=O)[C@H](CCC(=O)O)NC(=O)C(C)(C)NC(=O)[C@@H](NC(=O)C1(N)CCCC1)C(C)C)[C@@H](C)CC)C(=O)N[C@@H](Cc1c[nH]cn1)C(=O)N[C@@H](CCC(N)=O)C(=O)N[C@@H](CCCCNC(N)=O)C(=O)NC(C)(C)C(=O)N[C@@H](CCCNC(=N)N[N+](=O)[O-])C(=O)NC(C)(Cc1ccccc1F)C(N)=O (stereo partly shown) [Seq. ID. 460] (H-[Ac5c]V[Aib]EIQ[ξαMePhe(2-F)][Nle]HQ[hCit][Aib][Arg(NO2)][ξαMePhe(2-F)]-NH2) | 8 | 71 | 14 | (8) h | (6) h | 40 | 1 | 78 | – | – | –
CCCC[C@H](NC(=O)C(C)(Cc1c(F)cccc1F)NC(=O)[C@H](CCC(N)=O)NC(=O)[C@@H](NC(=O)[C@H](CCC(=O)O)NC(=O)C(C)(C)NC(=O)[C@@H](NC(=O)C(C)(C)N)C(C)C)[C@@H](C)CC)C(=O)N[C@@H](Cc1c[nH]cn1)C(=O)N[C@@H](CCC(N)=O)C(=O)NC(C)(Cc1c(F)cccc1F)C(=O)NC(C)(C)C(=O)NC(C)(Cc1c(F)cccc1F)C(=O)NC(C)(Cc1ccccc1F)C(N)=O (stereo partly shown) [Seq. ID. 510] (H-[Aib]V[Aib]EIQ[ξαMePhe(2,6-F2)][Nle]HQ[ξαMePhe(2,6-F2)][Aib][ξαMePhe(2,6-F2)][ξαMePhe(2-F)]-NH2) | > 24 | 0 | 41 | – | – | 00 | 2 | 80 | 4 | > 24 | –
CCCC[C@H](NC(=O)C(C)(Cc1c(F)cccc1F)NC(=O)[C@H](CCC(N)=O)NC(=O)[C@@H](NC(=O)[C@H](CCC(=O)O)NC(=O)C(C)(C)NC(=O)[C@@H](NC(=O)C(C)(C)N)C(C)C)[C@@H](C)CC)C(=O)N[C@@H](Cc1c[nH]cn1)C(=O)N[C@@H](CCC(N)=O)C(=O)NC(C)(Cc1c(F)cccc1F)C(=O)N[C@@H](C)C(=O)N[C@@H](CCCNC(=N)N[N+](=O)[O-])C(=O)NC(C)(Cc1ccccc1F)C(N)=O (stereo partly shown) [Seq. ID. 525] (H-[Aib]V[Aib]EIQ[ξαMePhe(2,6-F2)][Nle]HQ[ξαMePhe(2,6-F2)]A[Arg(NO2)][ξαMePhe(2-F)]-NH2) | 8 | 78 | 12 | (8) h | (6) h | 55 | 1 | 79 | – | – | –

Continued, values first:

half-life [1] [h] | metabolised at 24 h, 2 μM [1] [%] | % degradation of peptides in 24 h when incubated with simulated gastric fluid [2] [%] | half-life (t1/2) in simulated gastric fluid [2] | half-life (t1/2) in simulated intestinal fluid [3] | % degradation of peptides in 24 h when incubated with simulated intestinal fluid [3] [%] | half-life [4] [h] | % degradation of peptides in 24 h when incubated with liver microsomes [4] [%] | half-life [2] [h] | half-life [3] [h] | half-life (t1/2) in liver microsomes [4] | Structure (SMILES)
> 24 | 0 | 45 | – | – | 00 | 2 | 85 | 4 | > 24 | – | CCCC[C@H](NC(=O)C(C)(Cc1c(F)cccc1F)NC(=O)[C@H](CCC(N)=O)NC(=O)[C@@H](NC(=O)[C@H](CCC(=O)O)NC(=O)C(C)(C)NC(=O)[C@@H](NC(=O)C(C)(C)N)C(C)C)[C@@H](C)CC)C(=O)N[C@@H](Cc1c[nH]cn1)C(=O)N[C@@H](CCC(N)=O)C(=O)N[C@@H](CCCCNC(N)=O)C(=O)NC(C)(C)C(=O)NC(C)(C)C(=O)NC(C)(Cc1ccccc1F)C(N)=O (stereo partly shown) [Seq. ID. 430] (H-[Aib]V[Aib]EIQ[ξαMePhe(2,6-F2)][Nle]HQ[hCit][Aib][Aib][ξαMePhe(2-F)]-NH2)
> 24 | 0 | 43 | – | – | 00 | 2 | 84 | 4 | > 24 | – | CCCC[C@H](NC(=O)C(C)(Cc1c(F)cccc1F)NC(=O)[C@H](CCC(N)=O)NC(=O)[C@@H](NC(=O)[C@H](CCC(=O)O)NC(=O)C(C)(C)NC(=O)[C@@H](NC(=O)C1(N)CCCC1)C(C)C)[C@@H](C)CC)C(=O)N[C@@H](Cc1c[nH]cn1)C(=O)N[C@@H](CCC(N)=O)C(=O)N[C@@H](CCCCNC(N)=O)C(=O)NC(C)(C)C(=O)NC(C)(C)C(=O)NC(C)(Cc1c(F)cccc1F)C(N)=O (stereo partly shown) [Seq. ID. 440] (H-[Ac5c]V[Aib]EIQ[ξαMePhe(2,6-F2)][Nle]HQ[hCit][Aib][Aib][ξαMePhe(2,6-F2)]-NH2)
> 24 | 0 | 00 | – | – | 00 | – | 32 | > 24 | > 24 | (5) h | CCCC[C@H](NC(=O)C(C)(Cc1c(F)cccc1F)NC(=O)[C@H](CCC(N)=O)NC(=O)[C@@H](NC(=O)[C@H](CCC(=O)O)NC(=O)C(C)(C)NC(=O)[C@@H](NC(=O)C1(N)CCCC1)C(C)C)[C@@H](C)CC)C(=O)N[C@@H](Cc1c[nH]cn1)C(=O)N[C@@H](CCC(N)=O)C(=O)NC(C)(Cc1c(F)cccc1F)C(=O)NC(C)(C)C(=O)N[C@@H](CCCNC(N)=O)C(=O)NC(C)(Cc1ccccc1F)C(N)=O (stereo partly shown) [Seq. ID. 480] (H-[Ac5c]V[Aib]EIQ[ξαMePhe(2,6-F2)][Nle]HQ[ξαMePhe(2,6-F2)][Aib][Cit][ξαMePhe(2-F)]-NH2)
> 24 | 0 | 43 | – | – | 00 | 2 | 84 | 4 | > 24 | – | CCCC[C@H](NC(=O)C(C)(Cc1ccccc1F)NC(=O)[C@H](CCC(N)=O)NC(=O)[C@@H](NC(=O)[C@H](CCC(=O)O)NC(=O)C(C)(C)NC(=O)[C@@H](NC(=O)C(C)(C)N)C(C)C)[C@@H](C)CC)C(=O)N[C@@H](Cc1c[nH]cn1)C(=O)N[C@@H](CCC(N)=O)C(=O)NC(C)(Cc1c(F)cccc1F)C(=O)NC(C)(C)C(=O)NC(C)(C)C(=O)NC(C)(Cc1ccccc1F)C(N)=O (stereo partly shown) [Seq. ID. 490] (H-[Aib]V[Aib]EIQ[ξαMePhe(2-F)][Nle]HQ[ξαMePhe(2,6-F2)][Aib][Aib][ξαMePhe(2-F)]-NH2)
